According to the supplement of paper PMC10627819:

Legend:
[1] = tested on: S. aureus DSM 20231; experiment: Bliss interaction score (quartile over a dose matrix) (fitness difference); higher = more antagonism (negative = synergy)
In short: (§1)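 Combination data were used to infer fitness under each single drug. Fitness is the OD595 at entry into stationary phase divided by the robust mean of the plate's no-drug wells, with a cap of 1. The Bliss score is the observed minus the expected product fitness, summarised by quartiles over technical, biological and donor/recipient replicates.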

[2] = tested on: B. subtilis 168; experiment: as above
In short: as §1

[3] = tested on: S. pneumoniae D39V; experiment: as above
In short: as §1

[4] = tested on: S. aureus Newman; experiment: as above
In short: as §1

[5] = tested on: S. aureus DSM 20231; experiment: fitness (endpoint OD595 vs no drug) (fraction); higher = more growth
In short: (§2)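 Volumes were 30 µl per well, or 55 µl for S. pneumoniae, in 384-well plates inoculated at OD595 0.01. Media were TSB, LB Lennox or CY at 37 °C, and OD595 was read every 30 min for 14 h with first-reading background subtraction. Fitness is the ratio of optical density at stationary-phase entry to the robust mean of no-drug controls. That ratio is capped at 1.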

[6] = tested on: B. subtilis 168; experiment: as above
In short: as §2

[7] = tested on: S. pneumoniae D39V; experiment: as above
In short: as §2
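Wherever Bliss interaction score (quartile over a dose matrix) is given: first quartile when negative (synergy) and third quartile when positive (antagonism).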

CCC[C@@H]1C[C@@H](C(=O)N[C@@H]([C@H]2O[C@H](SC)[C@H](O)[C@@H](O)[C@H]2O)[C@@H](C)O)N(C)C1 [Lincomycin] + COc1cc(Cc2cnc(N)nc2N)cc(OC)c1OC [Trimethoprim]
Conditions	Bliss interaction score
[1]	0.222
[2]	-0.231
[3]	-0.125
[4]	0.213

fitness
Conditions	first compound 0.1 µg/mL	first compound 0.2 µg/mL	first compound 0.4 µg/mL	first compound 0.8 µg/mL	first compound 1.6 µg/mL
[5], partner 0.125 µg/mL	0.83	0.556	0.227	–	–
[5], partner 0.25 µg/mL	0.69	0.596	–	–	–
[5], partner 0.5 µg/mL	0.49	0.536	0.173	–	–
[5], partner 1 µg/mL	0.0776	0.0724	0.0567	–	–
[6], partner 0.125 µg/mL	–	–	0.487	–	–
[6], partner 0.25 µg/mL	–	–	0.465	0.263	0.0775
[6], partner 0.5 µg/mL	0.412	0.368	0.282	0.155	0.0565

fitness, [6], one replicate
Conditions	partner 0.1 µg/mL	partner 0.125 µg/mL	partner 0.2 µg/mL	partner 0.25 µg/mL	partner 0.4 µg/mL	partner 1 µg/mL	partner 2 µg/mL
first compound 0.1 µg/mL	–	0.539	–	0.582	–	0.451	0.343
first compound 0.2 µg/mL	–	0.633	–	0.619	–	0.319	0.174
first compound 0.4 µg/mL	0.581	–	0.318	–	0.215	0.069	0.0635
first compound 0.8 µg/mL	0.382	0.142	0.169	–	0.121	–	–
first compound 1.6 µg/mL	0.112	0.0455	0.0673	–	0.0597	–	–

CCC[C@@H]1C[C@@H](C(=O)N[C@@H]([C@H]2O[C@H](SC)[C@H](O)[C@@H](O)[C@H]2O)[C@@H](C)O)N(C)C1 [Lincomycin] + CC1=C\[C@@H](O)CC(=O)Cc2nc(co2)C(=O)N2CCC=C2C(=O)O[C@H](C(C)C)[C@H](C)/C=C/C(=O)NC\C=C\1 [Virginiamycin M1]
Conditions	Bliss interaction score
[1]	-0.0744
[2]	-0.0247
[3]	-0.0882
[4]	0.0588

Conditions	fitness
[5], first compound 0.1 µg/mL, partner 0.0625 µg/mL	0.844
[5], first compound 0.1 µg/mL, partner 0.125 µg/mL	0.857
[5], first compound 0.1 µg/mL, partner 0.25 µg/mL	0.875
[5], first compound 0.2 µg/mL, partner 0.0625 µg/mL	0.73
[5], first compound 0.2 µg/mL, partner 0.125 µg/mL	0.736
[5], first compound 0.2 µg/mL, partner 0.25 µg/mL	0.7
[5], first compound 0.4 µg/mL, partner 0.0625 µg/mL	0.361
[5], first compound 0.4 µg/mL, partner 0.125 µg/mL	0.242
[5], first compound 0.4 µg/mL, partner 0.25 µg/mL	0.267
[6], first compound 0.1 µg/mL, partner 0.0625 µg/mL	0.945
[6], first compound 0.1 µg/mL, partner 0.125 µg/mL	0.936
[6], first compound 0.1 µg/mL, partner 0.25 µg/mL	0.922
[6], first compound 0.2 µg/mL, partner 0.0625 µg/mL	0.91
[6], first compound 0.2 µg/mL, partner 0.125 µg/mL	0.925
[6], first compound 0.2 µg/mL, partner 0.25 µg/mL	0.949
[6], first compound 0.4 µg/mL, partner 0.0625 µg/mL	0.99
[6], first compound 0.4 µg/mL, partner 0.125 µg/mL	0.871
[6], first compound 0.4 µg/mL, partner 0.25 µg/mL	0.985
[7], first compound 0.2 µg/mL, partner 2 µg/mL	0.731
[7], first compound 0.215 µg/mL, partner 0.5 µg/mL	0.857
[7], first compound 0.215 µg/mL, partner 1 µg/mL	0.882
[7], first compound 0.215 µg/mL, partner 2 µg/mL	0.836
[7], first compound 0.4 µg/mL, partner 2 µg/mL	0.642
[7], first compound 0.43 µg/mL, partner 0.5 µg/mL	0.73
[7], first compound 0.43 µg/mL, partner 1 µg/mL	0.781
[7], first compound 0.43 µg/mL, partner 2 µg/mL	0.741
[7], first compound 0.8 µg/mL, partner 2 µg/mL	0.333
[7], first compound 0.86 µg/mL, partner 0.5 µg/mL	0.268
[7], first compound 0.86 µg/mL, partner 1 µg/mL	0.207
[7], first compound 0.86 µg/mL, partner 2 µg/mL	0.195

fitness, one replicate
Conditions	first compound 0.1 µg/mL	first compound 0.2 µg/mL	first compound 0.4 µg/mL	first compound 0.8 µg/mL
[5], partner 0.5 µg/mL	0.878	0.66	0.3	–
[5], partner 1 µg/mL	0.7	0.486	0.238	–
[7], partner 0.15 µg/mL	–	0.807	0.694	0.596
[7], partner 0.3 µg/mL	–	0.796	0.657	0.573
[7], partner 0.5 µg/mL	–	0.8	0.761	0.449
[7], partner 1 µg/mL	–	0.71	0.655	0.416
